Measured values as given in PMC6613030, “LC-ESI-MS/MS Phenolic Profile of Volutaria lippii (L.) Cass. Extracts and Evaluation of Their In Vitro Antioxidant, Antiacetylcholinesterase, Antidiabetic, and Antibacterial Activities” (Evidence-based Complementary and Alternative Medicine : eCAM, 2019).
Marks after values point to notes of the source that are not given here.

Key:
[1] = target: T1, pancreatic α-amylase (Sus scrofa, UniProt P00690); test: biochemical
T1 construct: purchased Merck (Sigma-Aldrich, Steinheim, Germany)
T1 sequence (P00690 16-511): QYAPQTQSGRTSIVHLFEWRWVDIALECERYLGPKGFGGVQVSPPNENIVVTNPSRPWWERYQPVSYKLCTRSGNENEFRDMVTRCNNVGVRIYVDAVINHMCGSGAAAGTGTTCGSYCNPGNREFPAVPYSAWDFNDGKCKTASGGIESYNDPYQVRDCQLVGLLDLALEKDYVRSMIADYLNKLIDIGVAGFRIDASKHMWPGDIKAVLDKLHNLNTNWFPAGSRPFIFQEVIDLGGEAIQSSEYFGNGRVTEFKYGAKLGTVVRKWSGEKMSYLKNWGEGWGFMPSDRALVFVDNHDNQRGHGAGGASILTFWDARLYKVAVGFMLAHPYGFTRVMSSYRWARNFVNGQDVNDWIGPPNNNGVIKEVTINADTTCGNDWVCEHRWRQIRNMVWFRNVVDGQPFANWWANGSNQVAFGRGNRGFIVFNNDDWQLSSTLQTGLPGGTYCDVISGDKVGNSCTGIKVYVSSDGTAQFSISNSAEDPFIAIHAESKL
Protocol: The in vitroα-amylase inhibitory assay of all fractions was performed by the previous method described by Gella et al.. […] Percentage inhibition (PI) was calculated by the following expression:(3) PI%=Acontrol – Asample/Acontrol×100 where Acontrol is the absorbance of the control and Asample is the absorbance of the test sample.

[2] = DPPH radical scavenging assay; conditions: 30 min in the dark, absorbance at 517 nm
Protocol: The DPPH radical scavenging activity of different fractions of V. lippii was evaluated following the procedure described by Les et al. [14]. […] The final concentrations in the reaction's mixture were 0.005-0.5 mg/mL. Each mixture was shaken and allowed in the dark for 30 min at room temperature. The blank was prepared as above without any extract and the BHT was used as positive control. […] The PI was calculated using the following equation:(1) PI%=Ablank – Asample/Ablank×100 where Ablank is the absorbance of the blank and Asample is the absorbance of the test sample.
The calibration curve for scavenging percentage against extract concentration was plotted and the IC50 (half maximal inhibitory concentration) value of each sample was established.

[3] = Reducing power assay (FRAP); conditions: effective concentration at which the absorbance is 0.5 (700 nm)
Protocol: The reducing power of all fractions was evaluated using the procedure of Yildirim et al., and BHT was used as positive control. A 1 mL of different concentrations of each V. lippii sample (5, 10, 25, 50,100 μg/mL) was mixed with 2.5 mL of 1% potassium ferricyanide and 2.5 mL of sodium phosphate buffer (0.2 M, pH= 6.6). The mixture was incubated for 20 min at 50°C and then 2.5 mL of 10% trichloroacetic acid were added and centrifuged for 10 minutes. 2.5 mL of the supernatant were mixed with 0.5 mL of ferric chloride solution (0.1%) and 2.5 mL of distilled water. The absorbance of the mixture was measured at 700 nm.

[4] = system: Bacillus thuringiensis; test: Antibacterial activity, agar disc diffusion; format: cell-based; conditions: 10 μg / disc, positive control
Protocol: (§1) The V. lippii fractions were assessed against a five bacterial strains: Gram-negative: Salmonella enterica (CIP 8039) and Escherichia coli (ATCC 8739), Gram-positive: Staphylococcus aureus (ATCC 6538), Bacillus thuringiensis, and Enterococcus faecalis (ATCC 29212). Bacteria not obtained from an ATCC collection were acquired from the Microbiology Department, Faculty of Science, University of Sfax (Tunisia). Bacterial strains were cultured in Mueller-Hinton agar (MHA) for 24 h at 37°C.
(§2) The disc diffusion method was employed for the determination of antibacterial activities of V. lippii fractions according to the method described by Berghe and Vlietinck. Antibacterial activities were evaluated by measuring the diameters of the inhibition zones against the test organisms and compared to penicillin (10 μg per disk) as the positive control. Tests were carried out in triplicate.

[5] = system: Enterococcus faecalis (ATCC 29212); test: Antibacterial activity, agar disc diffusion; format: cell-based; conditions: 10 μg / disc, positive control
Protocol: as §1, §2

[6] = system: Escherichia coli (ATCC 8739); test: Antibacterial activity, agar disc diffusion; format: cell-based; conditions: 10 μg / disc, positive control
Protocol: as §1, §2

[7] = system: Staphylococcus aureus (ATCC 6538); test: Antibacterial activity, agar disc diffusion; format: cell-based; conditions: 10 μg / disc, positive control
Protocol: as §1, §2

## C[C@H]1O[C@H](O[C@H]2[C@H](O)[C@@H](O)[C@@H](O[C@H]3[C@H](O)[C@@H](O)C(O)O[C@@H]3CO)O[C@@H]2CO)[C@H](O)[C@@H](O)[C@@H]1N[C@H]1C=C(CO)[C@@H](O)[C@H](O)[C@H]1O (stereo partly drawn) [Acarbose, acarbose]
[1]; concentration 2.85 μg/mL
  inhibition at 2.85 µg/mL: 29.8 ± 0.07%
[1]; concentration 5.71 μg/mL
  inhibition at 5.71 µg/mL: 51.52 ± 0.02%
[1]; concentration 11.42 μg/mL
  inhibition at 11.42 µg/mL: 86.62 ± 0.04%

## Cc1cc(C(C)(C)C)c(O)c(C(C)(C)C)c1 [BHT, butylated hydroxytoluene]
[2]
  DPPH IC50: 13.00±0.57^a μg/mL
[3]
  Reducing power EC50: 43.35±0.95^a μg/mL

## penicillin
[4]
  Inhibition zone in diameter: 18.0±0.4^d mm
[5]
  Inhibition zone in diameter: 16.0±0.2^c mm
[6]
  Inhibition zone in diameter: 16.3±0.1^d mm
[7]
  Inhibition zone in diameter: 14.1±0.5^c mm
